Assay results: patent publication US6737383B1, “Herbicidal oxadiazolidines” (priority 1999, dated 2004)

Columns and labels:
crabgrass = experiment: Test B pre/postemergence crabgrass; format: in vivo, Digitaria sanguinalis; conditions: Preemergence
Procedure, shortened: (§1)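 Test chemicals in a non-phytotoxic solvent mixture with surfactant were sprayed preemergence onto planted seeds and postemergence onto plants 2 to 18 cm tall (1- to 4-leaf stage). After twelve to sixteen days in a greenhouse, injury was visually rated against untreated controls from 0 (no effect) to 10 (complete control).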

giant foxtail = experiment: Test B pre/postemergence giant foxtail; format: in vivo, Setaria faberii; conditions: Preemergence, scale of 0 to 10 where 0 is no effect and 10 is complete control
Procedure, shortened: as §1

purple nutsedge = experiment: Test B pre/postemergence purple nutsedge; format: in vivo, Cyperus rotundus; conditions: Preemergence, Rate 62 g/ha; scale of 0 to 10 where 0 is no effect and 10 is complete control
Procedure, shortened: as §1

rape = experiment: Test B pre/postemergence rape; format: in vivo, Brassica napus; conditions: Preemergence, scale of 0 to 10 where 0 is no effect and 10 is complete control
Procedure, shortened: as §1

velvetleaf = experiment: Test B pre/postemergence velvetleaf; format: in vivo, Abutilon theophrasti; conditions: Preemergence, scale of 0 to 10 where 0 is no effect and 10 is complete control
Procedure, shortened: as §1

blackgrass = experiment: Test B pre/postemergence blackgrass; format: in vivo, Alopecurus myosuroides; conditions: Preemergence
Procedure, shortened: as §1

morningglory = experiment: Test B pre/postemergence morningglory; format: in vivo, Ipomoea hederacea; conditions: Preemergence, scale of 0 to 10 where 0 is no effect and 10 is complete control
Procedure, shortened: as §1

wheat = experiment: Test B pre/postemergence wheat; format: in vivo, Triticum aestivum; conditions: Preemergence, scale of 0 to 10 where 0 is no effect and 10 is complete control
Procedure, shortened: as §1

bedstraw = experiment: Test B pre/postemergence bedstraw; format: in vivo, Galium aparine; conditions: Preemergence
Procedure, shortened: as §1

cocklebur = experiment: Test B pre/postemergence cocklebur; format: in vivo, Xanthium strumarium; conditions: Preemergence
Procedure, shortened: as §1

sugar beet = experiment: Test B pre/postemergence sugar beet; format: in vivo, Beta vulgaris; conditions: Preemergence, scale of 0 to 10 where 0 is no effect and 10 is complete control
Procedure, shortened: as §1

soybean = experiment: Test B pre/postemergence soybean; format: in vivo, Glycine max; conditions: Preemergence, scale of 0 to 10 where 0 is no effect and 10 is complete control
Procedure, shortened: as §1

wild oat = experiment: Test B pre/postemergence wild oat; format: in vivo, Avena fatua; conditions: Preemergence, scale of 0 to 10 where 0 is no effect and 10 is complete control
Procedure, shortened: as §1

corn = experiment: Test B pre/postemergence corn; format: in vivo, Zea mays; conditions: Preemergence
Procedure, shortened: as §1

pigweed = experiment: Test B pre/postemergence pigweed; format: in vivo, Amaranthus retroflexus; conditions: Preemergence, scale of 0 to 10 where 0 is no effect and 10 is complete control
Procedure, shortened: as §1

surinam grass = experiment: Test B pre/postemergence surinam grass; format: in vivo, Brachiaria decumbens; conditions: Preemergence
Procedure, shortened: as §1

[1] = Rate 62 g/ha, scale of 0 to 10 where 0 is no effect and 10 is complete control
[2] = Rate 125 g/ha, scale of 0 to 10 where 0 is no effect and 10 is complete control
[3] = Rate 250 g/ha, scale 0 to 10 (0 no effect, 10 complete control)
[4] = Rate 500 g/ha, scale of 0 to 10 where 0 is no effect and 10 is complete control

## CC(C)N(C(=O)n1oc(=O)n(C(C)C)c1=O)c1ccc(Br)cc1 [Compound 691]
crabgrass; [1]
  Crabgrass plant response rating: 9
crabgrass; [2]
  Plant response rating, Crabgrass: 9
crabgrass; [3]
  Plant response rating, Crabgrass: 10
Giant foxtail; Rate 62 g/ha
  Giant foxtail plant response rating: 9
Giant foxtail; Rate 125 g/ha
  Plant response rating, Giant foxtail: 10
Purple nutsedge
  Nutsedge plant response rating: 0
rape; Rate 62 g/ha
  Rape plant response rating: 0
rape; Rate 125 g/ha
  Plant response rating, Rape: 3
velvetleaf; Rate 62 g/ha
  Velvetleaf plant response rating: 0
velvetleaf; Rate 125 g/ha
  Plant response rating, Velvetleaf: 0
blackgrass; [1]
  Blackgrass plant response rating: 4
blackgrass; [2]
  Plant response rating, Blackgrass: 9
blackgrass; [3]
  Plant response rating, Blackgrass: 10
blackgrass; [4]
  Plant response rating, Blackgrass: 10
morningglory; Rate 62 g/ha
  Morningglory plant response rating: 0
morningglory; Rate 125 g/ha
  Plant response rating, Morningglory: 0
wheat; Rate 62 g/ha
  Wheat plant response rating: 0
wheat; Rate 125 g/ha
  Plant response rating, Wheat: 0
bedstraw; [1]
  Bedstraw plant response rating: 0
bedstraw; [2]
  Plant response rating, Bedstraw: 9
bedstraw; [3]
  Plant response rating, Bedstraw: 9
cocklebur; [1]
  Cocklebur plant response rating: 0
cocklebur; [3]
  Plant response rating, Cocklebur: 0
cocklebur; [4]
  Plant response rating, Cocklebur: 0
Sugar beet; Rate 62 g/ha
  Sugarbeets plant response rating: 0
Sugar beet; Rate 125 g/ha
  Plant response rating, Sugarbeets: 2
soybean; Rate 62 g/ha
  Soybean plant response rating: 2
soybean; Rate 125 g/ha
  Plant response rating, Soybean: 2
Wild oat; Rate 62 g/ha
  Wild oats plant response rating: 2
Wild oat; Rate 125 g/ha
  Plant response rating, Wild oats: 6
corn; [1]
  Corn plant response rating: 0
corn; [2]
  Plant response rating, Corn: 0
corn; [3]
  Plant response rating, Corn: 0
pigweed; Rate 62 g/ha
  Redroot pigweed plant response rating: 2
pigweed; Rate 125 g/ha
  Plant response rating, Redroot pigweed: 3
Surinam grass; [1]
  B. signalgrass plant response rating: 0
Surinam grass; [2]
  Plant response rating, B. signalgrass: 8
Surinam grass; [3]
  Plant response rating, B. signalgrass: 9
Surinam grass; [4]
  Plant response rating, B. signalgrass: 10
